Data published in patent US20250255867A1 (Kadmon Corporation, LLC, priority 2022, published 2025).

CC(C)NC(=O)COc1cccc(-c2nc(Nc3ccc4[nH]ncc4c3)c3ccccc3n2)c1 [Belumosudil, 2-{3-[4-(1H-indazol-5-ylamino)-2-quinazolinyl]phenoxy}-N-(propan-2-yl) acetamide]
3/17: Weight increased: Affected/At Risk (Cohort 1 200 mg QD)
1: White blood cell count decreased: # Events (Cohort 1 200 mg QD) | Cough all grade, No. (Cohort 1 200 mg QD n=17) | Dyspnea grade ≥3, No. (Cohort 1 200 mg QD n=17) | Hypoxia grade ≥3, No. (Cohort 1 200 mg QD n=17) | Lung infection or pneumonia grade ≥3, No. (Cohort 1 200 mg QD n=17) | Abdominal pain upper: # Events (Cohort 2 200 mg BID) | Actinic keratosis: # Events (Cohort 2 200 mg BID) | Arthralgia: # Events (Cohort 2 200 mg BID) | Asthenia: # Events (Cohort 2 200 mg BID) | Balance disorder: # Events (Cohort 2 200 mg BID) | Basal cell carcinoma: # Events (Cohort 2 200 mg BID) | Blood alkaline phosphatase increased: # Events (Cohort 2 200 mg BID) | Blood chloride decreased: # Events (Cohort 2 200 mg BID) | Blood creatine increased: # Events (Cohort 2 200 mg BID) | Blood creatinine increased: # Events (Cohort 2 200 mg BID) | Bronchial secretion retention: # Events (Cohort 2 200 mg BID) | Chills: # Events (Cohort 2 200 mg BID) | Conjunctival haemorrhage: # Events (Cohort 2 200 mg BID) | Conjunctivitis: # Events (Cohort 2 200 mg BID)
3/16: Alanine aminotransferase increased: Affected/At Risk (Cohort 2 200 mg BID)
(5.88%): Weight decreased: Affected/At Risk (%) (Cohort 1 200 mg QD) | White blood cell count decreased: Affected/At Risk (%) (Cohort 1 200 mg QD)
3: Dyspnea all grade, No. (Cohort 1 200 mg QD n=17) | Peripheral edema all grade, No. (Cohort 1 200 mg QD n=17) | Anxiety: # Events (Cohort 2 200 mg BID) | Blister: # Events (Cohort 2 200 mg BID)
1/17: White blood cell count decreased: Affected/At Risk (Cohort 1 200 mg QD)
5: Hypertension all grade, No. (Cohort 1 200 mg QD n=17) | SAE, No. (Cohort 1 200 mg QD n=17)
(6.25%): Abdominal pain upper: Affected/At Risk (%) (Cohort 2 200 mg BID) | Actinic keratosis: Affected/At Risk (%) (Cohort 2 200 mg BID) | Arthralgia: Affected/At Risk (%) (Cohort 2 200 mg BID) | Asthenia: Affected/At Risk (%) (Cohort 2 200 mg BID) | Balance disorder: Affected/At Risk (%) (Cohort 2 200 mg BID) | Basal cell carcinoma: Affected/At Risk (%) (Cohort 2 200 mg BID) | Blood alkaline phosphatase increased: Affected/At Risk (%) (Cohort 2 200 mg BID) | Blood chloride decreased: Affected/At Risk (%) (Cohort 2 200 mg BID) | Blood creatine increased: Affected/At Risk (%) (Cohort 2 200 mg BID) | Blood creatinine increased: Affected/At Risk (%) (Cohort 2 200 mg BID) | Bronchial secretion retention: Affected/At Risk (%) (Cohort 2 200 mg BID) | Chills: Affected/At Risk (%) (Cohort 2 200 mg BID) | Conjunctival haemorrhage: Affected/At Risk (%) (Cohort 2 200 mg BID)
(18.75%): Alanine aminotransferase increased: Affected/At Risk (%) (Cohort 2 200 mg BID)
4/16: Anaemia: Affected/At Risk (Cohort 2 200 mg BID)
11: ALT/AST increased all grade, No. (Cohort 1 200 mg QD n=17)
4: Headache all grade, No. (Cohort 1 200 mg QD n=17) | Abdominal pain: # Events (Cohort 2 200 mg BID) | Alanine aminotransferase increased: # Events (Cohort 2 200 mg BID)
1/16: Abdominal pain upper: Affected/At Risk (Cohort 2 200 mg BID) | Actinic keratosis: Affected/At Risk (Cohort 2 200 mg BID) | Arthralgia: Affected/At Risk (Cohort 2 200 mg BID) | Asthenia: Affected/At Risk (Cohort 2 200 mg BID) | Balance disorder: Affected/At Risk (Cohort 2 200 mg BID) | Basal cell carcinoma: Affected/At Risk (Cohort 2 200 mg BID) | Blood alkaline phosphatase increased: Affected/At Risk (Cohort 2 200 mg BID) | Blood chloride decreased: Affected/At Risk (Cohort 2 200 mg BID) | Blood creatine increased: Affected/At Risk (Cohort 2 200 mg BID) | Blood creatinine increased: Affected/At Risk (Cohort 2 200 mg BID) | Bronchial secretion retention: Affected/At Risk (Cohort 2 200 mg BID) | Chills: Affected/At Risk (Cohort 2 200 mg BID) | Conjunctival haemorrhage: Affected/At Risk (Cohort 2 200 mg BID) | Conjunctivitis: Affected/At Risk (Cohort 2 200 mg BID)
(25%): Anaemia: Affected/At Risk (%) (Cohort 2 200 mg BID)
0: Death, No. (Cohort 1 200 mg QD n=17) | Drug-related SAE, No. (Cohort 1 200 mg QD n=17) | Abdominal distension: # Events (Cohort 2 200 mg BID) | Acute respiratory distress syndrome: # Events (Cohort 2 200 mg BID) | Adrenal insufficiency: # Events (Cohort 2 200 mg BID) | Anal incontinence: # Events (Cohort 2 200 mg BID) | Atelectasis: # Events (Cohort 2 200 mg BID) | Benign prostatic hyperplasia: # Events (Cohort 2 200 mg BID) | Blepharitis: # Events (Cohort 2 200 mg BID) | Blood cholesterol increased: # Events (Cohort 2 200 mg BID) | Blood creatine phosphokinase increased: # Events (Cohort 2 200 mg BID) | Blood loss anaemia: # Events (Cohort 2 200 mg BID) | Bronchitis: # Events (Cohort 2 200 mg BID) | Bronchoscopy: # Events (Cohort 2 200 mg BID) | Catheter site haemorrhage: # Events (Cohort 2 200 mg BID) | Chronic kidney disease: # Events (Cohort 2 200 mg BID)
6: Diarrhea all grade, No. (Cohort 1 200 mg QD n=17) | Fatigue all grade, No. (Cohort 1 200 mg QD n=17) | Nausea all grade, No. (Cohort 1 200 mg QD n=17)
0/16: Abdominal distension: Affected/At Risk (Cohort 2 200 mg BID) | Acute respiratory distress syndrome: Affected/At Risk (Cohort 2 200 mg BID) | Adrenal insufficiency: Affected/At Risk (Cohort 2 200 mg BID) | Anal incontinence: Affected/At Risk (Cohort 2 200 mg BID) | Atelectasis: Affected/At Risk (Cohort 2 200 mg BID) | Benign prostatic hyperplasia: Affected/At Risk (Cohort 2 200 mg BID) | Blepharitis: Affected/At Risk (Cohort 2 200 mg BID) | Blood cholesterol increased: Affected/At Risk (Cohort 2 200 mg BID) | Blood creatine phosphokinase increased: Affected/At Risk (Cohort 2 200 mg BID) | Blood loss anaemia: Affected/At Risk (Cohort 2 200 mg BID) | Bronchitis: Affected/At Risk (Cohort 2 200 mg BID) | Bronchoscopy: Affected/At Risk (Cohort 2 200 mg BID) | Catheter site haemorrhage: Affected/At Risk (Cohort 2 200 mg BID) | Chronic kidney disease: Affected/At Risk (Cohort 2 200 mg BID)
8: Drug-related AE, No. (Cohort 1 200 mg QD n=17) | Anaemia: # Events (Cohort 2 200 mg BID)
(12.5%): Abdominal pain: Affected/At Risk (%) (Cohort 2 200 mg BID) | Acute kidney injury: Affected/At Risk (%) (Cohort 2 200 mg BID) | Anxiety: Affected/At Risk (%) (Cohort 2 200 mg BID) | Aspartate aminotransferase increased: Affected/At Risk (%) (Cohort 2 200 mg BID) | Back pain: Affected/At Risk (%) (Cohort 2 200 mg BID) | Blister: Affected/At Risk (%) (Cohort 2 200 mg BID)
(0%): Abdominal distension: Affected/At Risk (%) (Cohort 2 200 mg BID) | Acute respiratory distress syndrome: Affected/At Risk (%) (Cohort 2 200 mg BID) | Adrenal insufficiency: Affected/At Risk (%) (Cohort 2 200 mg BID) | Anal incontinence: Affected/At Risk (%) (Cohort 2 200 mg BID) | Atelectasis: Affected/At Risk (%) (Cohort 2 200 mg BID) | Benign prostatic hyperplasia: Affected/At Risk (%) (Cohort 2 200 mg BID) | Blepharitis: Affected/At Risk (%) (Cohort 2 200 mg BID) | Blood cholesterol increased: Affected/At Risk (%) (Cohort 2 200 mg BID) | Blood creatine phosphokinase increased: Affected/At Risk (%) (Cohort 2 200 mg BID) | Blood loss anaemia: Affected/At Risk (%) (Cohort 2 200 mg BID) | Bronchitis: Affected/At Risk (%) (Cohort 2 200 mg BID) | Bronchoscopy: Affected/At Risk (%) (Cohort 2 200 mg BID) | Catheter site haemorrhage: Affected/At Risk (%) (Cohort 2 200 mg BID) | Chronic kidney disease: Affected/At Risk (%) (Cohort 2 200 mg BID)
2: ALT/AST increased grade ≥3, No. (Cohort 1 200 mg QD n=17) | Anemia grade ≥3, No. (Cohort 1 200 mg QD n=17) | Hyperglycemia grade ≥3, No. (Cohort 1 200 mg QD n=17) | Acute kidney injury: # Events (Cohort 2 200 mg BID) | Aspartate aminotransferase increased: # Events (Cohort 2 200 mg BID) | Back pain: # Events (Cohort 2 200 mg BID)
63%: Patients with relative dose intensity >95% (Cohort 2)
(17.65%): Weight increased: Affected/At Risk (%) (Cohort 1 200 mg QD)
17: Any AE, No. of patients (Cohort 1 200 mg QD n=17)
2/16: Abdominal pain: Affected/At Risk (Cohort 2 200 mg BID) | Acute kidney injury: Affected/At Risk (Cohort 2 200 mg BID) | Anxiety: Affected/At Risk (Cohort 2 200 mg BID) | Aspartate aminotransferase increased: Affected/At Risk (Cohort 2 200 mg BID) | Back pain: Affected/At Risk (Cohort 2 200 mg BID) | Blister: Affected/At Risk (Cohort 2 200 mg BID)
9: Weight increased: # Events (Cohort 1 200 mg QD) | Grade ≥3 AE, No. (Cohort 1 200 mg QD n=17) | URI all grade, No. (Cohort 1 200 mg QD n=17)
